Patent US20240343694A1, “PYRIMIDINE DERIVATIVE, METHOD FOR PREPARING SAME, AND PHARMACEUTICAL COMPOSITION FOR PREVENTING OR TREATING CANCER COMPRISING SAME AS ACTIVE INGREDIENT” (KOREA RESERARCH INSTITUTE OF CHEMICAL TECHNOLOGY, priority 2021, published 2024)

What was measured:
EGFR del19 = EGFR del19 (Homo sapiens (Human), UniProt P00533, DEL746-750); test: HTRF inhibitory activity against EGFR mutant enzyme (EGFR del19); assay type: biochemical; conditions: recombinant enzyme, 37° C. for 2 hours
Chain of EGFR del19 (P00533 other isoform, or with tags, fused parts or gaps del 1-668/del 746-750 limits assumed): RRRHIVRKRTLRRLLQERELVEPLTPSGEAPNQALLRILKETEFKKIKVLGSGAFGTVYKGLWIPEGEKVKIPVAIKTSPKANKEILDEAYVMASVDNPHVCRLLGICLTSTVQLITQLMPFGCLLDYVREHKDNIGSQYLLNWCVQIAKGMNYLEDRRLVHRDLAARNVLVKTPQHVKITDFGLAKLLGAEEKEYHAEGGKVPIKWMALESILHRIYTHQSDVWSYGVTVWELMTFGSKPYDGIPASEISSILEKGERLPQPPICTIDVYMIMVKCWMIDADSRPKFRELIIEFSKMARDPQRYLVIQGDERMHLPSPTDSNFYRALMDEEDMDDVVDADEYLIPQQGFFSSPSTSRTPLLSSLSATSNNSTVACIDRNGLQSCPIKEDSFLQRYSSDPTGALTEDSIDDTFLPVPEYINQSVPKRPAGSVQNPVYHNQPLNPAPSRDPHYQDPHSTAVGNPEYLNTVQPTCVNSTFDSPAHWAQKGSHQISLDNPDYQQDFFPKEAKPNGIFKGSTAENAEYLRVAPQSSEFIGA
Procedure, shortened: (§1)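 Recombinant EGFR del19 or A763_Y764insFHEA was premixed with compound in 50 mM Tris pH 7.5 with 7.5 mM MgCl2 and 1 mM DTT. ATP (50 mM as printed) and biotin-peptide (0.5 mM) were added and reacted 2 h at 37 °C. The HTRF 665/615 read used streptavidin-XL665 and Eu anti-phosphotyrosine. IC50 was fitted from 7 concentrations.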

EGFR A763_Y764insFHEA = EGFR A763_Y764insFHEA (Homo sapiens (Human), UniProt P00533, INS763FHEA); test: HTRF inhibitory activity against EGFR mutant enzyme (EGFR A763_Y764insFHEA); assay type: biochemical; conditions: recombinant enzyme, 37° C. for 2 hours
Chain of EGFR A763_Y764insFHEA (P00533 other isoform, or with tags, fused parts or gaps del 1-694/ins FHEA behind 763 limits assumed): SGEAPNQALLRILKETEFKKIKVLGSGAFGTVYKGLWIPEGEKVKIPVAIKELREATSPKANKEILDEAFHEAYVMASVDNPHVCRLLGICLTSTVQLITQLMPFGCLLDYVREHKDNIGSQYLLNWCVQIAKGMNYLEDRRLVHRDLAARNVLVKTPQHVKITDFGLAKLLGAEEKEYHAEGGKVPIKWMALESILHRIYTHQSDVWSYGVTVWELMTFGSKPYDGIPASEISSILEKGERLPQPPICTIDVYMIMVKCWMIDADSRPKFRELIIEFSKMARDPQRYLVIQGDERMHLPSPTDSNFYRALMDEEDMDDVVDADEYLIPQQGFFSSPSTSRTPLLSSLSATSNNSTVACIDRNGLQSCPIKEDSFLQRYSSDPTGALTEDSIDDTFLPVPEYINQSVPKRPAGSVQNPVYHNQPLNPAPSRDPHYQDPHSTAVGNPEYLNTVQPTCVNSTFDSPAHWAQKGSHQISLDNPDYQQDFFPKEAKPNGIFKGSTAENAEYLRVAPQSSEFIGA
Procedure, shortened: as §1

HER2 A775_G776insYVMA = HER2 A775_G776insYVMA (Homo sapiens (Human), UniProt P04626, INS775YVMA); test: HTRF inhibitory activity against HER2 mutant enzyme; assay type: biochemical; conditions: recombinant enzyme, 37° C. for 2 hours
Chain of HER2 A775_G776insYVMA (P04626 other isoform, or with tags, fused parts or gaps del 1-675/ins YVMA behind 775 limits assumed): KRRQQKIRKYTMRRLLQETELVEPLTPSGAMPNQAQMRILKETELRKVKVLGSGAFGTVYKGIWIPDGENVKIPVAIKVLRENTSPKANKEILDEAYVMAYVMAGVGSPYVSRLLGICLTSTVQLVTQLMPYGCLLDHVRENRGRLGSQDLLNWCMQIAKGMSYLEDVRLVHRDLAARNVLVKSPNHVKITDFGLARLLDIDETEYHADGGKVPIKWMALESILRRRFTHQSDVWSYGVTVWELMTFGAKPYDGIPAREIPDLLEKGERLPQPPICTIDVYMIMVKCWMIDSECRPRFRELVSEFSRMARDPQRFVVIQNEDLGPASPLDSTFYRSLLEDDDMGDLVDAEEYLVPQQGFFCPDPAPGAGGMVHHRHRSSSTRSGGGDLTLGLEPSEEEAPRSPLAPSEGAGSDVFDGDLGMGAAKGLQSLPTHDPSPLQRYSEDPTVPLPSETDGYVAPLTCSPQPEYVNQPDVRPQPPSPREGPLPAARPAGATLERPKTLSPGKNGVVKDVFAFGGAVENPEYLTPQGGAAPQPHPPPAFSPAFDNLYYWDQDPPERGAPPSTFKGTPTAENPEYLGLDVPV
Procedure, shortened: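 Recombinant HER2 A775_G776insYVMA preincubated with compound, then […] and biotinylated peptide ([…]) added; 2 h at 37 °C in Tris-HCl pH 7.5 buffer with MgCl2, DTT. HTRF detection (Eu anti-phosphotyrosine/streptavidin-XL665); IC50 from 7 concentrations.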

[1] = system: Ba/F3 EGFR D770_N771insSVD; test: Growth inhibition of Ba/F3 EGFR mutant cells (CellTiter-Glo); assay type: cell-based; conditions: Ba/F3 EGFR-D770-N771ins_SVD, 72 hours
Description: (§2) The activity of the compounds of the present invention against Ba/F3 EGFR V769_D770insASV and Ba/F3 EGFR D770_N771insSVD mutant cell lines was measured using the CellTiter-Glo system purchased from Promega as follows. CellTiter-Glo assay is a method to measure cell viability by monitoring ATP present in cells. Ba/F3 EGFR V769_D770insASV and Ba/F3 EGFR D770_N771insSVD mutant cell lines were purchased from Crown Biosciences. Ba/F3 EGFR V769_D770insASV and Ba/F3 EGFR D770_N771insSVD mutant cell lines were cultured in RPMI containing 10% FBS and 1% penicillin-streptomycin with 1 μg/mL of puromycin in a 5% CO2 incubator at 37° C.
(§3) The analysis of the ability of the compounds to inhibit the growth of EGFR mutant cells was performed according to the following method. 1,000 cells/100 μL were seeded in a 96-well cell culture plate, and 24 hours thereafter, the compounds represented by Formula 1 were treated with 0 μM, 0.01 μM, 0.03 μM, 0.1 μM, 0.3 μM, 1 μM, 3 μM, and 10 μM. After incubating for 72 hours, the plate treated with the compounds were left at room temperature for 30 minutes, 100 μL of a reagent was further added thereto, and then shaken at room temperature for 10 minutes. Finally, using equipment, the ratio of […] was measured to confirm the cell growth inhibition ability of the compounds. The measured values at 8 compound concentrations were analyzed using the Prism program (version 5.01, Graphpad Software, Inc.), and the IC50 (μM) values, which are measures of the compounds' inhibitory ability, were calculated.

[2] = system: Ba/F3 EGFR V769_D770insASV; test: as above; assay type: cell-based; conditions: 72 hours
Description: as §2, §3

[3] = system: Ba/F3 HER2 A775_G776insYVMA; test: Growth inhibition of Ba/F3 HER2 mutant cells (CellTiter-Glo); assay type: cell-based; conditions: Mus musculus, BaF3, 72 hours
Description: as §2, with “HER2 A775_G776insYVMA” for “EGFR V769_D770insASV”, “HER2 G776delinsVC” for “EGFR D770_N771insSVD”, “a” for “a 5%”
as §3, with “HER2” for “EGFR”, “reacting” for “incubating”, “was” for “was further”

Ba/F3 HER2 G776delinsVC = test: as above; assay type: cell-based; conditions: Mus musculus, BaF3, 72 hours
Description: as §2, with “HER2 A775_G776insYVMA” for “EGFR V769_D770insASV”, “HER2 G776delinsVC” for “EGFR D770_N771insSVD”, “a” for “a 5%”
as §3, with “HER2” for “EGFR”, “reacting” for “incubating”, “was” for “was further”

| SMILES | IC50 (EGFR del19) | IC50 (EGFR A763_Y764insFHEA) | IC50 (HER2 A775_G776insYVMA) | IC50 [1] | IC50 [2] | IC50 [3] | IC50 (Ba/F3 HER2 G776delinsVC) |
| --- | --- | --- | --- | --- | --- | --- | --- |
| C=CC(=O)Nc1cc(Nc2ncc(C(F)(F)F)c(Nc3cccc4c3N(S(C)(=O)=O)CC4)n2)c(OC)cc1N(C)CCN(C)C [Example 65, N-(2-((2-(dimethylamino)ethyl)(methyl)amino)-4-methoxy-5-((4-((1-(methylsulfonyl)indolin-7-yl)amino)-5-(trifluoromethyl)pyrimidin-2-yl)amino)phenyl)acrylamide] | < 0.001 µM | < 0.001 µM | 0.015 µM | 0.01 to 0.03 µM | 0.01 to 0.03 µM | 0.01 to 0.03 µM |  |
| C=CC(=O)Nc1cc(Nc2ncc(Cl)c(Nc3cccc4c3N(S(C)(=O)=O)CC4)n2)c(OC)cc1OCCN(C)C [Example 63, N-(5-((5-chloro-4-((1-(methylsulfonyl)indolin-7-yl)amino)pyrimidin-2-yl)amino)-2-(2-(dimethylamino)ethoxy)-4-methoxyphenyl)acrylamide] |  |  | < 0.001 µM | 0.01 to 0.03 µM | 0.01 to 0.03 µM | 0.01 to 0.03 µM |  |
| C=CC(=O)Nc1cc(Nc2ncc(F)c(Nc3cccc4c3N(C(C)=O)CC4)n2)c(OC)cc1N(C)CCN(C)C [Example 101, N-(5-((4-((1-acetylindolin-7-yl)amino)-5-fluoropyrimidin-2-yl)amino)-2-((2-(dimethylamino)ethyl)(methyl)amino)-4-methoxyphenyl)acrylamide] | 0.001 µM | 0.005 µM |  | 0.03 to 0.05 µM | 0.01 to 0.03 µM | 0.05 to 0.1 µM | < 0.01 µM |
| C=CC(=O)Nc1cc(Nc2ncc(Cl)c(Nc3cccc4c3N(S(C)(=O)=O)CCC4)n2)c(OC)cc1N1CCC(N2CCN(C)CC2)CC1 [Example 50, N-(5-((5-chloro-4-((1-(methylsulfonyl)-1,2,3,4-tetrahydroquinolin-8-yl)amino)pyrimidin-2-yl)amino)-4-methoxy-2-(4-(4-methylpiperazin-1-yl)piperidin-1-yl)phenyl)acrylamide] | < 0.001 µM | 0.003 µM | 0.06 µM | 0.05 to 0.1 µM | 0.05 to 0.1 µM | 0.05 to 0.1 µM | < 0.01 µM |
| C=CC(=O)Nc1cc(Nc2ncc(Cl)c(Nc3ccccc3NS(=O)(=O)CC)n2)c(OC)cc1N(C)CCN(C)C [Example 4, N-(5-((5-chloro-4-((2-(ethylsulfonamido)phenyl)amino)pyrimidin-2-yl)amino)-2-((2-(dimethylamino)ethyl)(methyl)amino)-4-methoxyphenyl)acrylamide] | < 0.001 µM | 0.002 µM | 0.037 µM |  | 0.01 to 0.03 µM | > 0.1 µM | 0.01 to 0.03 µM |
| C=CC(=O)Nc1cc(Nc2ncc(Cl)c(Nc3cccc4c3N(S(C)(=O)=O)CC4)n2)c(OC)cc1N(C)CCN1CCOCC1 [Example 64, N-(5-((5-chloro-4-((1-(methylsulfonyl)indolin-7-yl)amino)pyrimidin-2-yl)amino)-4-methoxy-2-(methyl(2-morpholinoethyl)amino)phenyl)acrylamide] | < 0.001 µM | < 0.001 µM | 0.003 µM | 0.03 to 0.05 µM | 0.03 to 0.05 µM | 0.01 to 0.03 µM |  |
| C=CC(=O)Nc1cc(Nc2ncc(Cl)c(Nc3ccc(C)cc3N(C)S(C)(=O)=O)n2)c(OC)cc1N(C)CCN1CCC1 [Example 82, N-(2-((2-(azetidin-1-yl)ethyl)(methyl)amino)-5-((5-chloro-4-((4-methyl-2-(N-methylmethylsulfonamido)phenyl)amino)pyrimidin-2-yl)amino)-4-methoxyphenyl)acrylamide] | < 0.001 µM | < 0.001 µM | 0.002 µM | < 0.01 µM | < 0.01 µM |  |  |
| C=CC(=O)Nc1cc(Nc2ncc(C(=O)OC(C)C)c(Nc3cccc4c3N(S(C)(=O)=O)CC4)n2)c(OC)cc1N(C)CCN(C)C [Example 61, isopropyl 2-((5-acrylamido-4-((2-(dimethylamino)ethyl)(methyl)amino)-2-methoxyphenyl)amino)-4-((1-(methylsulfonyl)indolin-7-yl)amino)pyrimidin-5-carboxylate] | < 0.001 µM | < 0.001 µM | 0.001 µM | 0.01 to 0.03 µM | 0.01 to 0.03 µM | 0.01 to 0.03 µM |  |
| C=C(F)C(=O)Nc1cc(Nc2ncc(Cl)c(Nc3cccc4c3N(S(C)(=O)=O)CC4)n2)c(OC)cc1N(C)CCN(C)C [Example 66, N-(5-((5-chloro-4-((1-(methylsulfonyl)indolin-7-yl)amino)pyrimidin-2-yl)amino)-2-((2-(dimethylamino)ethyl)(methyl)amino)-4-methoxyphenyl)-2-fluoroacrylamide] | < 0.001 µM | < 0.001 µM | 0.005 µM | 0.01 to 0.03 µM | 0.01 to 0.03 µM | 0.01 to 0.03 µM |  |
| C=CC(=O)Nc1cc(Nc2ncc(Cl)c(Nc3cccc4c3N(S(C)(=O)=O)CCC4)n2)c(OC)cc1N(C)CCN1CCOCC1 [Example 53, N-(5-((5-chloro-4-((1-(methylsulfonyl)-1,2,3,4-tetrahydroquinolin-8-yl)amino)pyrimidin-2-yl)amino)-4-methoxy-2-(methyl(2-morpholinoethyl)amino)phenyl)acrylamide] |  |  | 0.01 µM | 0.01 to 0.03 µM | 0.01 to 0.03 µM | 0.01 to 0.03 µM |  |
| C=CC(=O)Nc1cc(Nc2ncc(Cl)c(Nc3cccc4c3N(S(C)(=O)=O)CC4)n2)c(OC)cc1OCCN1CCCC1 [Example 79, N-(5-((5-chloro-4-((1-(methylsulfonyl)indolin-7-yl)amino)pyrimidin-2-yl)amino)-4-methoxy-2-(2-(pyrrolidin-1-yl)ethoxy)phenyl)acrylamide] | < 0.001 µM | < 0.001 µM | 0.001 µM | < 0.01 µM | 0.01 to 0.03 µM |  |  |
| C=CC(=O)Nc1cc(Nc2ncc(Cl)c(Nc3cccc4c3N(S(C)(=O)=O)CC4)n2)c(OC)cc1N(C)CCN1CCCC1 [Example 74, N-(5-((5-chloro-4-((1-(methylsulfonyl)indolin-7-yl)amino)pyrimidin-2-yl)amino)-4-methoxy-2-(methyl(2-(pyrrolidin-1-yl)ethyl)amino)phenyl)acrylamide] | < 0.001 µM | < 0.001 µM | < 0.001 µM | < 0.01 µM | < 0.01 µM |  |  |
| C=CC(=O)Nc1cc(Nc2ncc(C#N)c(Nc3cccc4c3N(S(C)(=O)=O)CC4)n2)c(OC)cc1N(C)CCN(C)C [Example 62, N-(5-((5-cyano-4-((1-(methylsulfonyl)indolin-7-yl)amino)pyrimidin-2-yl)amino)-2-((2-(dimethylamino)ethyl)(methyl)amino)-4-methoxyphenyl)acrylamide] |  |  | 0.003 µM | 0.01 to 0.03 µM | 0.01 to 0.03 µM | 0.01 to 0.03 µM |  |
